Assay [1] concerns phosphorylation of AKT in MDA-MB-468 tumor cells. The experiment in a line: Inhibition of phosphorylation of AKT (Ser473, MSD) in PTEN deficient tumor cell line MDA-MB-468. The assay is classed as cell-based. To be noted: Homo sapiens, 0.5 h; MDA-MB-468 cells, 30 minutes compound treatment, Ser473-pAKT normalized to total AKT. As to the method:
Cellular Assays—Inhibition of Phosphorylation of AKT in PTEN Deficient Tumor Cell Line MDA-MB-468
Compounds were evaluated for their ability to inhibit downstream phosphorylation of AKT in MDA-MB-468 tumor cells. Breast cancer cells were plated, incubated for approximately 16-20 hours and then treated with compound for 30 minutes. Final DMSO concentration on all cells was 0.15%. The cells were washed with Tris buffer and lysed in MesoScale Discovery (MSD) lysis buffer containing protease and phosphatase inhibitors (included in MSD kit). MSD Ser473-AKT duplex plates (Cat # MS6000) were used according to the manufacturer's instructions and plates were read on a SECTOR™ Imager 6000 using MSD Workbench software. For analysis of the Ser473-pAKT concentration response curves, the data was normalized using the corresponding total AKT value (sum of pAKT and AKT signal) and plotted as the percent of the DMSO-treated control values. The data was fit in Graphpad Prism version 4 for Windows (Graphpad Software, San Diego, Calif.).
The compounds listed in Table 2 were tested generally according to the assays described herein. Table 2 lists the IC50 values for either an experimental run or an average of two or more experimental runs with the examples shown.

In the next assay the target is T1, PI3Kβ (Homo sapiens, UniProt P42338).
T1 construct: made in house
T1 sequence (P42338 whole entry): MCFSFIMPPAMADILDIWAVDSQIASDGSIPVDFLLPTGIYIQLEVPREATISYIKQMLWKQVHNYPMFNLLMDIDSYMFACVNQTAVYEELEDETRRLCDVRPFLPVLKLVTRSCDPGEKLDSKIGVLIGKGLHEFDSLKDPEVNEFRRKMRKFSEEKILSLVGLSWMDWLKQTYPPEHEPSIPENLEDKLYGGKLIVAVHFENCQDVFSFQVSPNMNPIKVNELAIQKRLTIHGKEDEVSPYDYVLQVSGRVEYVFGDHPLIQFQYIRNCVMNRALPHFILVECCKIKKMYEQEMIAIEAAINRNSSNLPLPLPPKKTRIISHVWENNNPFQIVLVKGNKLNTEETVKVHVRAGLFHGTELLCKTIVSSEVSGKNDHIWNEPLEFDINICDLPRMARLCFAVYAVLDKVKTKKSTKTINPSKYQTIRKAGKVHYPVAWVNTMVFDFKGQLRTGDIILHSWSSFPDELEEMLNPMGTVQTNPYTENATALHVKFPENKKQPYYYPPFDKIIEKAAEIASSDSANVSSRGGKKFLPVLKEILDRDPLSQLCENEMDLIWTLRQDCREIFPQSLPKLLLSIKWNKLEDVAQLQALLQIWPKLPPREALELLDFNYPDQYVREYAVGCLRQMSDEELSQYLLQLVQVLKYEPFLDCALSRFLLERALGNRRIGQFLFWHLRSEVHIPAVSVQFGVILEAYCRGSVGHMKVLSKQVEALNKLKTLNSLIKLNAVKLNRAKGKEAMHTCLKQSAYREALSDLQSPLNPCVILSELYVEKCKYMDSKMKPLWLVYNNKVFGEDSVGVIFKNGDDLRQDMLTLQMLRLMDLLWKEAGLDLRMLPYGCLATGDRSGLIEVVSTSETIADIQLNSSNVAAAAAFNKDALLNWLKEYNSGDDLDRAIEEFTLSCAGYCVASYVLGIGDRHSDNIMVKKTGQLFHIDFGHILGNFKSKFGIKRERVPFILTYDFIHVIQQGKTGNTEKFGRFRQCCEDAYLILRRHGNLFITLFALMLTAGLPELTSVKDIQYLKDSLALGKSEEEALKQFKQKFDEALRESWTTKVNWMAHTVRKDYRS
T1 sequence (P27986 whole entry partner): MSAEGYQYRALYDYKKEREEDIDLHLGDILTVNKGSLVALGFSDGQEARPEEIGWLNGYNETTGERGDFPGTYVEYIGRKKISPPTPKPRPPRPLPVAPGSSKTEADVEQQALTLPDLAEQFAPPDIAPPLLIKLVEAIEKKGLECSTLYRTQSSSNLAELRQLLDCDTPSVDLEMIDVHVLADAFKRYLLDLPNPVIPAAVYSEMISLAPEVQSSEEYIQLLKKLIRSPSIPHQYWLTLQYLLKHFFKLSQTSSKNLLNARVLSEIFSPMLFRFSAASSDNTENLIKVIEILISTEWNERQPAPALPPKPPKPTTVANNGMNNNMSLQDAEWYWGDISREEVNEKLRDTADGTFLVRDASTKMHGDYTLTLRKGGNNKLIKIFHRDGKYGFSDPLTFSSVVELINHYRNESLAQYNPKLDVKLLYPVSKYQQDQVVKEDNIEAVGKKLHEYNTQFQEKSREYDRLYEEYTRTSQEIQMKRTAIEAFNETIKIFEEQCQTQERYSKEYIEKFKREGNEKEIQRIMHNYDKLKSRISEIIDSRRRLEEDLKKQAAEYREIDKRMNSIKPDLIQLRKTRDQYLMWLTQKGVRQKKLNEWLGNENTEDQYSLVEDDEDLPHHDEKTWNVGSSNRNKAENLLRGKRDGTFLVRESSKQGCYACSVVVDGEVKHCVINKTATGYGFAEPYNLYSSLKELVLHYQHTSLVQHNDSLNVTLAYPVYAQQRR
The experiment in a line: HTRF in vitro profiling assay for PI3K inhibition (beta isoform). It counts as biochemical. Particulars: 200 pM enzyme, 100 uM ATP, 10 uM PIP2, 150 mM NaCl, corrected pIC50, single run or average of two or more runs, read-out: PI3K b pIC50 (converted). The protocol: Compounds of the present invention were tested according to the following assays and found as inhibitors of PI3 kinases, particularly PI3Kβ. […] The IC50 value can be converted and presented as pIC50 value.
HTRF In Vitro Profiling Assays for PI3K Inhibition
The PI3-Kinase profiling assays were developed to measure the compound-dependent inhibition of the alpha, beta, delta, and gamma isoforms of PI3K in an in vitro catalytic assay. This assay was developed and optimized from a kit produced by Upstate (Millipore catalog #33-017). Briefly, this procedure utilizes a pre-formed HTRF (Homogeneous Time-Resolved Fluorescence energy transfer) complex between four binding partners: 1) biotinylated PIP3, 2) GST tagged pleckstrin homology (PH) domain, 3) Europium labeled anti-GST monoclonal antibody, and 4) Streptavidin-Allophycocyanin (APC). The native PIP3 produced by PI 3-Kinase activity displaces biotin-PIP3 from the PH domain, resulting in the dissociation of the HTRF complex and a decrease in the fluorescence signal. The format of this assay is the same for all 4 isoforms of PI3K; the differences lie in the concentration of enzyme used to achieve the most robust signal. The alpha and delta assays are run at 400 pM enzyme; the beta assay is at 200 pM enzyme and the gamma assay is run at 1 nM enzyme. In addition, the alpha, beta and delta assays are run with 150 mM NaCl while the gamma assay is run in the absence of NaCl. The ATP concentration is 100 uM in the alpha, beta, and delta assays and 15 uM ATP in the gamma assay. All reactions are run at 10 uM PIP2
Compounds were serially diluted (3-fold in 100% DMSO) across a 384-well polypropylene mother plate from column 1 to column 12 and column 13 to column 24, to yield 11 concentrations for each test compound. Columns 6 and 18 contain only DMSO. Once titrations were made, 0.05 μL was transferred to a 384-well low-volume assay plate (Greiner 784076). This assay plate contained three pharmacological controls (known PI3K inhibitors) and 3 assay controls: (1) Enzyme without inhibitor; (2) Buffer minus enzyme, and (3) Buffer minus enzyme plus native PIP3. DMSO was stamped into all wells of columns 6 and 18. PIP3 was added at 40 μM in 1× Reaction buffer (1 μL of 200 μM PIP3) to alternating rows of column 18 (wells 18 B, D, F, H, J, L, N, P). The no-enzyme control reactions were run in wells 18 A, C, E, G, I, K, M, O (0.1 μL of 100% DMSO).
The PI3-Kinase profiling assay was optimized using the HTRF kit provided by Upstate (Millipore). The assay kit contained seven reagents: 1) 4× Reaction Buffer; 2) native PIP2 (substrate); 3) Stop A (EDTA); 4) Stop B (Biotin-PIP3); 5) Detection Mix A (Streptavidin-APC); 6) Detection Mix B (Eu-labeled Anti-GST plus GST-tagged PH-domain); 7) Detection Mix C (KF). In addition, the following items were obtained or purchased: PI3Kinase (prepared by GSK BR&AD), dithiothreitol (Sigma, D-5545), Adenosine-5′-triphosphate (ATP, Teknova cat. # A0220), native PIP3 (1,2-dioctanoyl-sn-glycero-3-[phosphoinositil-3,4,5-triphosphate]tetraammonium salt (Avanti polar lipids, 850186P), DMSO (Sigma, 472301).
PI3Kinase Reaction Buffer was prepared by diluting the stock 1:4 with de-ionized water. Freshly prepared DTT was added at a final concentration of 5 mM on the day of use. Enzyme addition and compound pre-incubation were initiated by the addition of 2.5 μL of PI3K (at twice its final concentration) in 1× reaction buffer to all wells using a Multidrop Combi. Plates were incubated at room temperature for 15 minutes. Reactions were initiated by addition of 2.5 μL of 2× substrate solution (PIP2 and ATP in 1× reaction buffer) using a Multidrop Combi. Plates were incubated at room temperature for one hour. Reactions were quenched by the addition of 2.5 μL of stop solution (Stop A and Stop B pre-mixed at a ratio of 5:1, respectively) to all wells using the Multidrop Combi. […]
(In general: In TR-FRET formats the signal depends on donor and acceptor labels being close together.)

As to `Cc1c(Cn2c(C)nc3c(B(O)O)cc(N4CCOCC4)cc32)cccc1C(F)(F)F` [Example 4, (2-methyl-1-(2-methyl-3-(trifluoromethyl)benzyl)-6-morpholino-1H-benzo[d]imidazol-4-yl)boronic acid], the IC50 in assay [1] was 18.7 nM; at PI3Kβ, 0.398 nM.
For `Cc1c(Cl)cccc1Cn1c(C)nc2c(B(O)O)cc(N3CCOCC3)cc21` [Example 5, (1-(3-chloro-2-methylbenzyl)-2-methyl-6-morpholino-1H-benzo[d]imidazol-4-yl)boronic acid], the results for the IC50 (in assay [1]; on PI3Kβ) were 8.97 nM and 0.2 nM, respectively.
The matching figures for `Cc1nc2c(B(O)O)cc(N3CCOCC3)cc2n1Cc1cccc2ccccc12` [Example 6, (2-methyl-6-morpholino-1-(naphthalen-1-ylmethyl)-1H-benzo[d]imidazol-4-yl)boronic acid]: 78.2 nM and 0.501 nM.
As to `Cc1cccc(Cn2c(C)nc3c(B(O)O)cc(N4CCOCC4)cc32)c1C` [Example 7, (1-(2,3-dimethylbenzyl)-2-methyl-6-morpholino-1H-benzo[d]imidazol-4-yl)boronic acid], the IC50 in assay [1] was 45.6 nM; at PI3Kβ, 0.501 nM.
The matching figures for `Cc1nc2c(B(O)O)cc(N3CCOCC3)cc2n1Cc1cccc(Cl)c1Cl` [Example 8, (1-(2,3-dichlorobenzyl)-2-methyl-6-morpholino-1H-benzo[d]imidazol-4-yl)boronic acid]: 61 nM and 0.501 nM.
Consider `Cc1nc2c(B(O)O)cc(N3CCOCC3)cc2n1Cc1cccc2ccsc12` [Example 9], for which the IC50 in assay [1] was 65.8 nM; on PI3Kβ it was 1.26 nM.
In the case of `Cc1cccc(Cn2c(C)nc3c(B(O)O)cc(N4CCOCC4)cc32)c1` [Example 10, (2-methyl-1-(3-methylbenzyl)-6-morpholino-1H-benzo[d]imidazol-4-yl)boronic acid], the IC50 in assay [1] is 672 nM; on PI3Kβ, 63.1 nM.
As to `Cc1ccccc1Cn1c(C)nc2c(B(O)O)cc(N3CCOCC3)cc21` [Example 11, (2-methyl-1-(2-methylbenzyl)-6-morpholino-1H-benzo[d]imidazol-4-yl)boronic acid], the IC50 in assay [1] is 227 nM; at PI3Kβ it was 10 nM.
For the compound `Cc1nc2c(B(O)O)cc(N3CCOCC3)cc2n1Cc1ccccc1Cl` [Example 12, (1-(2-chlorobenzyl)-2-methyl-6-morpholino-1H-benzo[d]imidazol-4-yl)boronic acid], the results for the IC50 (in assay [1]; at PI3Kβ) were 1490 nM and 39.8 nM, respectively.
For the compound `Cc1nc2c(B(O)O)cc(N3CCOCC3)cc2n1Cc1cccc(Cl)c1` [Example 13, (1-(3-chlorobenzyl)-2-methyl-6-morpholino-1H-benzo[d]imidazol-4-yl)boronic acid], the values for the IC50 (in assay [1]; on PI3Kβ) were 105 nM and 63.1 nM, respectively.
In the same order, the values of `Cc1c(Cn2cnc3c(B(O)O)cc(N4CCOCC4)cc32)cccc1C(F)(F)F` [Example 14, (1-(2-methyl-3-(trifluoromethyl)benzyl)-6-morpholino-1H-benzo[d]imidazol-4-yl)boronic acid] are 24.4 nM and 1.58 nM.
`Cc1c(Cl)cccc1Cn1cnc2c(B(O)O)cc(N3CCOCC3)cc21` [Example 15, (1-(3-chloro-2-methylbenzyl)-6-morpholino-1H-benzo[d]imidazol-4-yl)boronic acid]: the figures for the IC50 (in assay [1]; on PI3Kβ) were 7.95 nM and 1.26 nM, respectively.
For `Cc1c(Cn2c(CF)nc3c(B(O)O)cc(N4CCOCC4)cc32)cccc1C(F)(F)F` [Example 16, (2-(fluoromethyl)-1-(2-methyl-3-(trifluoromethyl)benzyl)-6-morpholino-1H-benzo[d]imidazol-4-yl)boronic acid], the IC50 in assay [1] was 19.1 nM; at PI3Kβ, 0.0631 nM.
In the same order, the values of `Cc1c(Cl)cccc1Cn1c(CF)nc2c(B(O)O)cc(N3CCOCC3)cc21` [Example 17, (1-(3-chloro-2-methylbenzyl)-2-(fluoromethyl)-6-morpholino-1H-benzo[d]imidazol-4-yl)boronic acid] are 14.5 nM and 0.0631 nM.
Take `Cc1c(Cn2c(CO)nc3c(B(O)O)cc(N4CCOCC4)cc32)cccc1C(F)(F)F` [Example 18, (2-(hydroxymethyl)-1-(2-methyl-3-(trifluoromethyl)benzyl)-6-morpholino-1H-benzo[d]imidazol-4-yl)boronic acid]: the IC50 was 6.35 nM in assay [1] and 0.2 nM at PI3Kβ.
As for `Cc1c(Cl)cccc1Cn1c(C(F)F)nc2c(B(O)O)cc(N3CCOCC3)cc21` [Example 19, (1-(3-chloro-2-methylbenzyl)-2-(difluoromethyl)-6-morpholino-1H-benzo[d]imidazol-4-yl)boronic acid], the values for the IC50 (in assay [1]; at PI3Kβ) were 70.9 nM and 0.0794 nM, respectively.
Take `Cc1c(Cn2c(C(F)F)nc3c(B(O)O)cc(N4CCOCC4)cc32)cccc1C(F)(F)F` [Example 20, (2-(difluoromethyl)-1-(2-methyl-3-(trifluoromethyl)benzyl)-6-morpholino-1H-benzo[d]imidazol-4-yl)boronic acid]: the IC50 in assay [1] was 40.1 nM; at PI3Kβ it was 0.126 nM.
For `Cc1c(Cl)cccc1Cn1c(C(F)(F)F)nc2c(B(O)O)cc(N3CCOCC3)cc21` [Example 21, (1-(3-chloro-2-methylbenzyl)-6-morpholino-2-(trifluoromethyl)-1H-benzo[d]imidazol-4-yl)boronic acid], the IC50 in assay [1] is 92.9 nM; at PI3Kβ, 0.0794 nM.
For `Cc1c(Cn2c(C(C)C)nc3c(B(O)O)cc(N4CCOCC4)cc32)cccc1C(F)(F)F` [Example 22, (2-isopropyl-1-(2-methyl-3-(trifluoromethyl)benzyl)-6-morpholino-1H-benzo[d]imidazol-4-yl)boronic acid], the IC50 in assay [1] is 74.6 nM; on PI3Kβ, 3.16 nM.
For `Cc1c(Cn2c(C3CC3)nc3c(B(O)O)cc(N4CCOCC4)cc32)cccc1C(F)(F)F` [Example 23, (2-cyclopropyl-1-(2-methyl-3-(trifluoromethyl)benzyl)-6-morpholino-1H-benzo[d]imidazol-4-yl)boronic acid], the IC50 was 56.2 nM in assay [1] and 1.26 nM on PI3Kβ.

The record behind these values is patent US8778937B2, “Benzimidazole boronic acid derivatives as PI3 kinase inhibitors” (GlaxoSmithKline LLC, priority 2011, dated 2014).
